# Results as given in patent US20220313777A1, “INHALED DELIVERY OF PEPTIDE MIMICS OF CXCL10 FOR TARGETED ANTI-FIBROTIC THERAPY” (University of Pittsburgh - Of the Commonwealth System of …, priority 2019, published 2022).
# How the values were obtained:
# [1] = test system: primary lung fibroblasts from scleroderma patients; experiment: RT-qPCR of pro-fibrotic mRNAs in TGF-β-treated primary lung fibroblasts; assay type: cell-based, human; settings: peptide 10 ng/mL plus TGF-β 10 ng/mL, 24 hours, delta-delta Ct, GAPDH housekeeping
# Procedure: Primary lung fibroblasts from scleroderma patients were treated with TGF-β alone, or with IP-10-1 (SEQ ID NO: 2; FIGS. 1A-1C), IP-10-2 (SEQ ID NO: 3; FIGS. 1D-1F), or IP-10-3 (SEQ ID NO: 4; FIGS. 1G-1I) peptide (10 ng/mL) in the presence or absence of TGF-β (10 ng/mL) for 24 hours and then analyzed by RT-qPCR for the fibrotic ECM markers tenascin C (FIGS. 1A, 1D, 1G), collagen 1 (FIGS. 1B, 1E, 1H) and fibronectin (FIGS. 1C, […], 1I). Treatment with TGF-β alone induced expression of mRNAs for tenascin C (TNC), collagen 1 (COL1A1), and fibronectin (FN1) in primary lung fibroblasts. When cells were treated with an IP-10 peptide in combination with TGF-β, the IP-10 peptides reduced or prevented induction in mRNA expression of TNC, COL1A1, and FN1.
# Primary lung fibroblasts from scleroderma patients were plated in 6-well plates in complete medium and incubated overnight. The next day, the medium was changed to quiescent medium and the cells were incubated in this medium for 24 hours. The following day, cells were left untreated, treated with 10 ng/mL of IP-10-1 (SEQ ID NO: 2), IP-10-2 (SEQ ID NO: 3) or IP-10-3 (SEQ ID NO: 4) peptide, treated with 10 ng/mL TGF-β, or treated with the combination of peptide and TGF-β for 24 hours. Total RNA was extracted using the Qiagen miRNeasy kit (Qiagen) and treated with DNase1, according to the manufacturer's instructions. RNA was then quantified and converted to cDNA using the Clontech RNA to cDNA EcoDry Double Primed Premix (Takara). qPCR was performed using PowerUp Sybr Green (Invitrogen) on an Applied Biosystems Quant Studio 3 instrument. Primers were from IDT and were designed using IDT Primer Quest and NCBI Primer Blast tools. The delta-delta Ct method was used to determine relative expression of the pro-fibrotic mRNAs for tenascin C (TNC), collagen 1 (COL1A1), and fibronectin (FN1). GAPDH was used as a housekeeping gene.
# CXCR3B isoform = biological target: T1, CXCR3B isoform (Homo sapiens, UniProt P49682); settings: described in WO 2013/032853 and WO 2015/112505; cited from earlier work
# T1 construct: host or cells: dermal endothelial cells (as described in the cited PCT publications)
# T1 sequence (P49682 1-415 isoform P49682-2): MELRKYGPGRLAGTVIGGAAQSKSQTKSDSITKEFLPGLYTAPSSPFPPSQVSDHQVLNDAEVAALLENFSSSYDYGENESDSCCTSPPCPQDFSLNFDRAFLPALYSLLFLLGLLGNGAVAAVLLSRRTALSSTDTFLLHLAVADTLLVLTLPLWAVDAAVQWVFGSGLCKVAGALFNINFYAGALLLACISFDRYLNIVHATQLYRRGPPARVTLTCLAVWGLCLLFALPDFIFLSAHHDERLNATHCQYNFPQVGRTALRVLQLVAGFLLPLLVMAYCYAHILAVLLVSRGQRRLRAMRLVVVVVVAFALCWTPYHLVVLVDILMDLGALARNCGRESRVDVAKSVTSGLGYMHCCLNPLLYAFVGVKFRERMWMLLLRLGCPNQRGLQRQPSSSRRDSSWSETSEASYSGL
# angiogenesis = settings: earlier work, not tested in anti-fibrotic applications; cited from earlier work
Sequence,expression of collagen 1 (COL1A1) mRNA relative to treatment with TGF-β alone [1],expression of fibronectin (FN1) mRNA relative to treatment with TGF-β alone [1],expression of tenascin C (TNC) mRNA relative to treatment with TGF-β alone [1],activation of the CXCR3B isoform (CXCR3B isoform),inhibition of angiogenesis (angiogenesis)
"FAKAIKNFAKAVAKFA [IP-10-3, CXCL10 (IP-10) peptide variant]",significantly reduced or prevented,significantly reduced or prevented,significantly reduced or prevented,–,–
"PESKAIKNLLKAVSKEMSKRSP [IP-10p, CXCL10 peptide consisting of the α-helical domain (residues 77-98 of human CXCL10)]",–,–,–,activates the CXCR3B isoform,able to inhibit angiogenesis
"PESKVIKNLLKVASKERSKRSP [IP-10-1, CXCL10 (IP-10) peptide variant]",significantly reduced or prevented,significantly reduced or prevented,significantly reduced or prevented,–,–
"PESRVIKNLLRVVSKEKSRRSP [IP-10-2, CXCL10 (IP-10) peptide variant]",significantly reduced or prevented,significantly reduced or prevented,significantly reduced or prevented,–,–
